Source: ChEMBL document CHEMBL1201862, “PubChem BioAssay data set” (2004)
Calls of active or inactive are those of the source.

How the values were obtained:
[1] = cells; type: functional, cell-based
[2] = cytotoxicity toward NIH3T3 fibroblasts, dose response, counter-screen, cell-based, ATP luminescence, mouse fibroblasts (AID 2010); type: functional;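 further: cells exposed to compound for about 90 hours before reading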
[3] = inhibitors of intracellular T. cruzi replication, confirmation, NIH3T3 host cells, beta-gal luminescence (AID 2044); type: functional, cell-based;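 further: intracellular parasites grown in NIH/3T3 mouse fibroblasts as host cells; luminescent beta-galactosidase reporter signal from transgenic T. cruzi replicating inside host cells; inhibitors lower the luminescence signal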
[4] = cells; type: functional, cell-based; remark: listed apart in the source
[5] = system: Streptococcus sp. 'group A'; test: growth inhibition of control SK(-) GAS strain, dose response, counter-screen for streptokinase expression inhibitor project, luminescence, kanamycin, BacTiterGlo, confirmation (AID 1900); type: functional, organism-based
[6] = molecular target: T1, Probable nicotinate-nucleotide adenylyltransferase (Staphylococcus aureus (strain N315), UniProt P65502); type: functional, Staphylococcus aureus subsp. aureus N315;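 on IC50 Mean: confirmatory dose-response retesting of NadD inhibitor hits first found in an ultra-high-throughput screen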
T1 sequence (P65502 whole entry): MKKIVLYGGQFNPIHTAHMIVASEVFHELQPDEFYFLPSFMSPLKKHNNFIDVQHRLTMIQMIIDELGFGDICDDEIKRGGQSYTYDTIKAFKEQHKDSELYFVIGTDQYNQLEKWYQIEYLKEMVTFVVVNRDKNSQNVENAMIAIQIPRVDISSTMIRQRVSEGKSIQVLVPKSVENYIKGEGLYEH

[7] = molecular target: Nonstructural protein 1 (Influenza A virus, UniProt Q194T2); type: functional, Influenza A virus (A/California/07/2009(H1N1))
Chain of Nonstructural protein 1 (Q194T2 whole entry): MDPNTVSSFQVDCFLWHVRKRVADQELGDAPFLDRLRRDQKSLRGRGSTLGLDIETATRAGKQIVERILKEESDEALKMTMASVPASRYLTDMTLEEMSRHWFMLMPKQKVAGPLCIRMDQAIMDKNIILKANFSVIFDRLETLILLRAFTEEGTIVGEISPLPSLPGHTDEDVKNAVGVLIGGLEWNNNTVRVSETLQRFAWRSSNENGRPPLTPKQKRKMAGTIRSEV

[8] = molecular target: T2, Streptokinase A (Streptococcus pyogenes serotype M1, UniProt P10520); test: S. pyogenes streptokinase expression inhibitors, potency, dose response, plasminogen activation absorbance, OD405 (AID 1914); type: functional, Streptococcus pyogenes M1 GAS;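 further: secreted streptokinase activity via plasminogen activation per viability signal from cell pellet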
T2 sequence (P10520 whole entry): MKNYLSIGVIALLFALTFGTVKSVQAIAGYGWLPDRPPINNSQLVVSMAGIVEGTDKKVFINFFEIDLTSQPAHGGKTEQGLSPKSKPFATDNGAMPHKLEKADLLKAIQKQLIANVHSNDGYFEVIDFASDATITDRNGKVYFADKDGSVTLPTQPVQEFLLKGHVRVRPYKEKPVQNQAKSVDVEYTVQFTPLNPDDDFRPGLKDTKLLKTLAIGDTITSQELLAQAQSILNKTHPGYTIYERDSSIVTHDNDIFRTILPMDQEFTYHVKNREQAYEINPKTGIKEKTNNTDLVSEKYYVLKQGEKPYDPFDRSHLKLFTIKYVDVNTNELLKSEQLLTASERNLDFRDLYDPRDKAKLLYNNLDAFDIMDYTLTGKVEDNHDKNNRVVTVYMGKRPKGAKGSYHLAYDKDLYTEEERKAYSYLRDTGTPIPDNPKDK

[9] = system: Streptococcus; test: Group A Streptococcus viability loss, dose response, counter-screen for streptokinase expression inhibitor project, luminescence, BacTiterGlo (AID 1915); type: functional, organism-based;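 further: potency for reduction of bacterial viability or growth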
[10] = molecular target: T1, Probable nicotinate-nucleotide adenylyltransferase; type: functional, Staphylococcus aureus subsp. aureus N315; details: read-out: IC50_Mean
[11] = system: INS1; test: beta cell apoptosis inhibitors, cytokine rescue, dose response, luminescence, retest (AID 449756); type: functional, cell-based; details: Rattus norvegicus;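 further: cell death triggered by IL-1 beta plus TNF-alpha plus IFN-gamma mixture; protective hits raise ATP signal compared with cytokine alone wells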
[12] = A Cell Based Secondary Assay To Explore Cytotoxicity of Compounds that Sensitize Mycobacterium Tuberculosis to Beta-Lactam Antibiotics.; type: functional
[13] = molecular target: T3, Carboxy-terminal domain RNA polymerase II polypeptide A small phosphatase 1 (Homo sapiens, UniProt Q9GZU7); test: inhibitors of CTDSP1, concentration-response testing, biochemical assay, absorbance-based, actives from ultra-high-throughput screening (AID 540297); type: functional
T3 sequence (Q9GZU7 whole entry): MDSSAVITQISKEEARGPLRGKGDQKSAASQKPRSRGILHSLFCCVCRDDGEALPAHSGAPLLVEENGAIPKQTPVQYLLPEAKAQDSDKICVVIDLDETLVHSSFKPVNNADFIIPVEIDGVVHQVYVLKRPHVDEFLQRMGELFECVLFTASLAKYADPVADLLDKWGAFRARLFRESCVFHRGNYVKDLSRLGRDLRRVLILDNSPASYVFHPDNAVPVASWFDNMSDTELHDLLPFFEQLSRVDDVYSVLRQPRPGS

[14] = molecular target: T4, Estrogen receptor beta (Homo sapiens, UniProt Q92731);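 further: recombinant ER-beta bound to coactivator SRC1 peptide in presence of estradiol agonist; inhibitors block coactivator peptide binding and lower the FRET signal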
T4 sequence (Q92731 whole entry): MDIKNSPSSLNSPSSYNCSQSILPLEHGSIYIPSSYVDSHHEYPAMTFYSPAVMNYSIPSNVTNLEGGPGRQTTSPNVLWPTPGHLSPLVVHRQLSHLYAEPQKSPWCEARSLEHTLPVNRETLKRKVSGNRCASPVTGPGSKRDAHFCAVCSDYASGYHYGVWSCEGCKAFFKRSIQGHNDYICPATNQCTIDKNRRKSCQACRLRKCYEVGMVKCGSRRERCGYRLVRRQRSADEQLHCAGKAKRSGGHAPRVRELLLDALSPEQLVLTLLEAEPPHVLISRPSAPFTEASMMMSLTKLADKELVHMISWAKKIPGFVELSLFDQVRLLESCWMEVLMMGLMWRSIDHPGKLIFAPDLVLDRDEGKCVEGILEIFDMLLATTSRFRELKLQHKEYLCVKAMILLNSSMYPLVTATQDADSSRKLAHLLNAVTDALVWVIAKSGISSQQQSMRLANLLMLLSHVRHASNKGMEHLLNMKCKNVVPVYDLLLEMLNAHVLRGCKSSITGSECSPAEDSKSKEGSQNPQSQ

[15] = molecular target: T4, Estrogen receptor beta; test: ERβ–SRC-3 coactivator interaction inhibitors, confirmation, orthogonal assay, biochemical, ELISA, streptavidin-HRP readout (AID 1060)
[16] = molecular target: T5, Estrogen receptor (Homo sapiens, UniProt P03372);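 further: potency for inhibiting coactivator peptide recruitment to the receptor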
T5 sequence (P03372 whole entry): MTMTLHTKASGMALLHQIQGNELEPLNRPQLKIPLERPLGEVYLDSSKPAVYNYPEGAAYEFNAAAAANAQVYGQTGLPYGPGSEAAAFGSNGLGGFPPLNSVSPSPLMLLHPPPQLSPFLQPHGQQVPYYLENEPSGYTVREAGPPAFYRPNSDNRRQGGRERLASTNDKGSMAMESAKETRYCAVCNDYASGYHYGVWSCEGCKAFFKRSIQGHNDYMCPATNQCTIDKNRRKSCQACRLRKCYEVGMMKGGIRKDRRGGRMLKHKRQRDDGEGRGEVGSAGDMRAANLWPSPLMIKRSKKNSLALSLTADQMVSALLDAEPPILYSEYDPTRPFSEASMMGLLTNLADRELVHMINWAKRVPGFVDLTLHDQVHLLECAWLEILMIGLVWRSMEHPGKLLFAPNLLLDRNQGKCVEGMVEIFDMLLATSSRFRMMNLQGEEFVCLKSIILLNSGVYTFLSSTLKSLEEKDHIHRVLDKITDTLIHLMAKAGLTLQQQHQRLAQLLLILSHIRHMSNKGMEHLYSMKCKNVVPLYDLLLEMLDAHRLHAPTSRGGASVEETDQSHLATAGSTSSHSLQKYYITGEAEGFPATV

[17] = cells
[18] = molecular target: T6, Microphthalmia-associated transcription factor (Homo sapiens, UniProt O75030); test: TRPM1 promoter luciferase signal decrease, dose response, MITF inhibitor project, cell-based, SK-MEL-5, cherry-picked, set 3 (AID 493073); type: functional
T6 sequence (O75030 whole entry): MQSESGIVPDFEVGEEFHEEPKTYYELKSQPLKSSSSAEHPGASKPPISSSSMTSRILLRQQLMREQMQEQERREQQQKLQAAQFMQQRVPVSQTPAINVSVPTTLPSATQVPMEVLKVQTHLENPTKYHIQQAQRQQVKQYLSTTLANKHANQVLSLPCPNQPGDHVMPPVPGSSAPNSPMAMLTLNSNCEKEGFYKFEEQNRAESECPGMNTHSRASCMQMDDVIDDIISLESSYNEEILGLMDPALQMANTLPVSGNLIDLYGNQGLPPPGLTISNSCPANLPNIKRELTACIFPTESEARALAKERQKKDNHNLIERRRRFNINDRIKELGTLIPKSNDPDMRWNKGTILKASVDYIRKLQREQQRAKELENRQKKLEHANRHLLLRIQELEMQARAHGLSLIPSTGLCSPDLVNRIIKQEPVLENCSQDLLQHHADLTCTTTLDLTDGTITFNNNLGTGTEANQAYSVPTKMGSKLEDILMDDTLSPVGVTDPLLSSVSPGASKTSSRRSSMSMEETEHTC

[19] = HepG2 cell cytotoxicity, dose response, cytotoxicity control, ATP luminescence, cherry-pick, activator set 2 (AID 1053143); type: functional, cell-based
[20] = molecular target: T7, Fatty acid synthase (Homo sapiens, UniProt P49327); test: FAS thioesterase domain inhibitors, dose response, biochemical, kinetic fluorescence intensity (AID 624326); type: functional;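 further: rate of fluorescence rise from hydrolysis of a fluorogenic O-methyl fluorescein ester substrate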
T7 sequence (P49327 whole entry, the tested form may be a part): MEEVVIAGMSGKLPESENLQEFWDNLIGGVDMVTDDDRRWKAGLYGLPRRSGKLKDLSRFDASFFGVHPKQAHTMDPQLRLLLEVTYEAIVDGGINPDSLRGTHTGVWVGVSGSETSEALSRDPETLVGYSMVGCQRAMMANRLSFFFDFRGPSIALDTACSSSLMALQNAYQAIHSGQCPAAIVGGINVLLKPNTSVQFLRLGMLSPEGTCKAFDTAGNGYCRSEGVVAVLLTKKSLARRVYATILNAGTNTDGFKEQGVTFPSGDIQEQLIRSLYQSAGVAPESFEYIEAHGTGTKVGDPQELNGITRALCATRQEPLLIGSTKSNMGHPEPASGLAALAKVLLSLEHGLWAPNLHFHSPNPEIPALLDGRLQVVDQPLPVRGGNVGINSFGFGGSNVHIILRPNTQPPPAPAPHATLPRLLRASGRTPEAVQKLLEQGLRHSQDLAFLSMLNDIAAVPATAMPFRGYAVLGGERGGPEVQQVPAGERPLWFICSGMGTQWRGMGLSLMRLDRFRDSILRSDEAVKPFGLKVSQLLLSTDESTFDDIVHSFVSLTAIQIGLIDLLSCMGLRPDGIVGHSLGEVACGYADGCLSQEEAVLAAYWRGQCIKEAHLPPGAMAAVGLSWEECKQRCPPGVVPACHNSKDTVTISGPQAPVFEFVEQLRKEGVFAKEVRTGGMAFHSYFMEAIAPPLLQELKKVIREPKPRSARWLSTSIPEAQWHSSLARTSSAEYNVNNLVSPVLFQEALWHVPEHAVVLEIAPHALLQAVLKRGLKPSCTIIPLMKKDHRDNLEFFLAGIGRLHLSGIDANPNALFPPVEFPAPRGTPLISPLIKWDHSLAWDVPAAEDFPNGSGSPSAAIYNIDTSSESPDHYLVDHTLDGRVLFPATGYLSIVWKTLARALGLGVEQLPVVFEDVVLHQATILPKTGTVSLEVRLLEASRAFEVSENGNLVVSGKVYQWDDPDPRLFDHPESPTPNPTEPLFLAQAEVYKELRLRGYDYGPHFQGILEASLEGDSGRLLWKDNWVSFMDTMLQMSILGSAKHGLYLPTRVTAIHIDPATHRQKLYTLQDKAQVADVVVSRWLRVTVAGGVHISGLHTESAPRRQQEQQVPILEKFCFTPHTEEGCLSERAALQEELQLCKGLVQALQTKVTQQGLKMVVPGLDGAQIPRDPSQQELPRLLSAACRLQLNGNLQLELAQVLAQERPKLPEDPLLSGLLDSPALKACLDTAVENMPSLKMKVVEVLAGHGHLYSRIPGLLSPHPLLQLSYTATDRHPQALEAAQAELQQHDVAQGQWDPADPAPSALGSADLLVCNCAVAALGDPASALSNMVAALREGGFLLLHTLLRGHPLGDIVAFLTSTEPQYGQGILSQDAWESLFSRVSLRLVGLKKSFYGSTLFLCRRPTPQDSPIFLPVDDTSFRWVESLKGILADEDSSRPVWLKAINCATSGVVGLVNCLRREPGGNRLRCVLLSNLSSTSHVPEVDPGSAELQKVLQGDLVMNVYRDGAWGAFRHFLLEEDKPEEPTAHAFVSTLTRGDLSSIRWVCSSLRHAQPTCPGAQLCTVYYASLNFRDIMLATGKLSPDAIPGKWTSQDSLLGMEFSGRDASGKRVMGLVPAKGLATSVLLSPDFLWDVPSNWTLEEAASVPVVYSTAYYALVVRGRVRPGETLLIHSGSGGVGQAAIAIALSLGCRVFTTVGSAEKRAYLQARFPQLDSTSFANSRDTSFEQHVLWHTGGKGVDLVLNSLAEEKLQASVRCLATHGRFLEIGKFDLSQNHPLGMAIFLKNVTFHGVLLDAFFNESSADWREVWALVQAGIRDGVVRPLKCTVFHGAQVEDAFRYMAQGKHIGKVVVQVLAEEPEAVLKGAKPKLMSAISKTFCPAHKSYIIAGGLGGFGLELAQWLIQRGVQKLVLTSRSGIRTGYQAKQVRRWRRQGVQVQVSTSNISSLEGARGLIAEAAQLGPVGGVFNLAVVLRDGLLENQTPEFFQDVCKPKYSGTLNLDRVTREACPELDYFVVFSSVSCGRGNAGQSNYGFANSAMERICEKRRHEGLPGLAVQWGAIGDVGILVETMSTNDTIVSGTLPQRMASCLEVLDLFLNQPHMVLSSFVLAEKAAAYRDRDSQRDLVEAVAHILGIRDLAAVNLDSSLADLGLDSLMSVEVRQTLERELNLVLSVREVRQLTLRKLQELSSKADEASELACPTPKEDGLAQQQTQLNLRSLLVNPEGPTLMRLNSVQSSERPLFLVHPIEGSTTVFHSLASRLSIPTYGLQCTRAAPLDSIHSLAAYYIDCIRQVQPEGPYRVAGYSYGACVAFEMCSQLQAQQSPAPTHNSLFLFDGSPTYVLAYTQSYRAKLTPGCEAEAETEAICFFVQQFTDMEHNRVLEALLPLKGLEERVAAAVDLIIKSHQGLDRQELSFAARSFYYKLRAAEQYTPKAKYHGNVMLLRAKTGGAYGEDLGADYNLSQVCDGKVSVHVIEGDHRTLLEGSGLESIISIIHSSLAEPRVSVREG

[21] = HEp-2 cell cytotoxicity, dose response, cytotoxicity control for RSV inhibitor project, HTS (AID 2410); type: functional; details: human respiratory syncytial virus
[22] = molecular target: T7, Fatty acid synthase; test: FAS thioesterase domain inhibitors, dose response, biochemical, endpoint fluorescence intensity, uHTS hits (AID 624327); type: functional;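 further: fluorescence from hydrolysis of an O-methyl fluorescein acyl ester substrate by the enzyme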
[23] = molecular target: Prothrombin (Bos taurus, UniProt P00735); test: thrombin inhibition, dose response, biochemical, fluorescence polarization, uHTS hits (AID 602369); type: functional
[24] = molecular target: T8, Caspase-6 (Homo sapiens, UniProt P55212); test: human caspase-6 inhibitors, dose response, biochemical, VEID-R110 fluorescence, cherry-pick (AID 720632)
T8 sequence (P55212 whole entry): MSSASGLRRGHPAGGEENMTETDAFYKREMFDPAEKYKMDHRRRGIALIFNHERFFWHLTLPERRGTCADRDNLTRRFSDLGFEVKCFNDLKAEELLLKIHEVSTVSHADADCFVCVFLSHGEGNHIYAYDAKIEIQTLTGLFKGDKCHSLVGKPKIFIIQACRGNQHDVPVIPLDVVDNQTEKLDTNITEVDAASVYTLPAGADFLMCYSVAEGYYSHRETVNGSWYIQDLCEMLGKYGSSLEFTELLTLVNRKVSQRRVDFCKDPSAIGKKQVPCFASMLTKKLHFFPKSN

[25] = molecular target: 72 kDa type IV collagenase (Homo sapiens, UniProt P08253); test: Dose Response validation of uHTS RPN11 inhibitor hits using a MMP-2 Fluorescence assay.; type: functional
Chain of 72 kDa type IV collagenase (P08253 whole entry): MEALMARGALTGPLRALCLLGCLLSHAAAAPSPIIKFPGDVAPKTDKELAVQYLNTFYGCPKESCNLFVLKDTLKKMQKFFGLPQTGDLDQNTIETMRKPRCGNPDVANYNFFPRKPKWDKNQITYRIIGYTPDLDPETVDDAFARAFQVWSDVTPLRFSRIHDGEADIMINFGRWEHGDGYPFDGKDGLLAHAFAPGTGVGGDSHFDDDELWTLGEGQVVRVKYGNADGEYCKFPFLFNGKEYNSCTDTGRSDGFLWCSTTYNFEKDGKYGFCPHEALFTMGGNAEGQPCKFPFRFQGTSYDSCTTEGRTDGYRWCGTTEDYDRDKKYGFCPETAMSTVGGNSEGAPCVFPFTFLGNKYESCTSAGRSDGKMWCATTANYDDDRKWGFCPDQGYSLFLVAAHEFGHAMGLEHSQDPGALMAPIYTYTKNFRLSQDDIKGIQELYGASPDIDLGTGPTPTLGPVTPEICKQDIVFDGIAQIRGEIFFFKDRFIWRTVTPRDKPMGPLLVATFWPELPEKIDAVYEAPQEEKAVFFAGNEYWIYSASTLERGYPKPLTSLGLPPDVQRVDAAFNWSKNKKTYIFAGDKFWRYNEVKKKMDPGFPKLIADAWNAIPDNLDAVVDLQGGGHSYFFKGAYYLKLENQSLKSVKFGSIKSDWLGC

[26] = molecular target: 26S proteasome non-ATPase regulatory subunit 14 (Homo sapiens, UniProt O00487); test: inhibition of proteasome subunit RPN11 – biochemical, fluorescence polarization, uHTS hits, confirmation (AID 602368); type: functional
Chain of 26S proteasome non-ATPase regulatory subunit 14 (O00487 whole entry): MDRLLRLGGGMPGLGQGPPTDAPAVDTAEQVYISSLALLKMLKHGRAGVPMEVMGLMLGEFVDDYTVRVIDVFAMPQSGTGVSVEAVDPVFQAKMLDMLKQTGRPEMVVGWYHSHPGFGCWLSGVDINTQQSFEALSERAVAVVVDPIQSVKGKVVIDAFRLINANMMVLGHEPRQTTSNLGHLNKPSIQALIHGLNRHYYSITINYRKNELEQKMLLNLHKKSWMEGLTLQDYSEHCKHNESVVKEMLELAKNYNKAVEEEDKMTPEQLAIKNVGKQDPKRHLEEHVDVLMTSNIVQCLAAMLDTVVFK

In the case of Cc1cccc2sc(NNC(=O)c3ccc(S(=O)(=O)N4CCc5ccccc5C4)cc3)nc12, the EC50 [1] is reported as > 350 µM (not active), the EC50 [2] is reported as 2.62 µM (active) and the EC50 [3] is reported as 0.733 µM (active). For the same molecule, the EC50 [4] was 12 µM (active), the EC50 [5] was 2.4 µM (active) and the IC50 [6] was 13.8 µM (active). For the same molecule, the IC50 [7] was > 100 µM (active), the EC50 [8] was > 150 µM (not active) and the EC50 [9] was 33.6 µM (active). The IC50 [10] was 56.7 µM (active) and the AC50 [11] was 1.8 µM (active).
In the case of CNC(=Nc1cc(Cl)ccc1Cl)SC1CC(=O)N(c2ccc(C(=O)OC)cc2)C1=O (stereo not given), the EC50 [5] is reported as 10.3 µM (active), the EC50 [9] is reported as 12.5 µM (active) and the CC50 [12] is reported as > 40 µM (active).
With O=C(c1cc2ncc(Br)cn2n1)N1CCN(C(=O)c2ccco2)CC1 the IC50 [13] was 16.5 µM (active), the IC50 [14] was 2.73 µM (active) and the IC50 [15] was 0.349 µM (not active). For the same molecule, the IC50 [16] was 17.9 µM (active).
In the case of Clc1ccc(-c2c[n+](Cc3cccc(Cl)c3)c3n2CCC3)cc1, the EC50 [2] is reported as > 60 µM (not active), the EC50 [3] is reported as < 0.1 µM (active) and the EC50 [17] is reported as 0.009 µM (active). For the same molecule, the AC50 [18] was 8.77 µM (active).
With N#Cc1ccc(C23CC4(C2)[C@H](CN(Cc2cccnc2)[C@@H]4c2ccccc2)C3c2ccccc2)cc1 (stereo not given in full) the CC50 [12] was > 40 µM (active).
For Brc1c(CSc2nc3ccccc3o2)nc2ncccn12, the AC50 [19] was > 52 µM (inactive).
In the case of Cc1ccc2c(C)nc(N=C(N)NS(=O)(=O)c3ccc([N+](=O)[O-])cc3)nc2c1, the IC50 [20] is reported as 8.96 µM (active), the EC50 [2] is reported as > 60 µM (not active) and the EC50 [3] is reported as < 0.1 µM (active). The CC50 [21] was 45.4 µM (active), the IC50 [22] was 10.9 µM (active) and the EC50 [17] was 0.273 µM (active).
With Cc1cccc(NC(=O)CNC(=O)CCc2nc3sc4c(c3c(=O)[nH]2)CCCC4)c1C the IC50 [13] was 2.66 µM (active), the IC50 [23] was 43.9 µM (active) and the AC50 [24] was 7.7 µM (active). The IC50 [25] was > 100 µM (inactive) and the IC50 [26] was 7.12 µM (active).
